US7531520B2, “Drug and food or drink for improving pancreatic functions” (Morinaga Milk Industry Co., Ltd., priority 2005, dated 2009)
Where two headings read alike, the source gives them in different places.

Tests used:
db/db mice [1] = test: Pancreatic tissue protecting action, Langerhans islets in pancreatic sections (Test Example 2); format: in vivo
Protocol: The final DMSO concentration was adjusted to 0.2%. […] On the 43rd day of the continuous administration, the pancreas was extracted, divided into three portions of upstream, midstream and downstream from the duodenum side, and fixed with a formalin solution, and then paraffin blocks were prepared in a conventional manner. Section slides were prepared from the paraffin blocks, and subjected to hematoxylin-eosin staining. The numbers of Langerhans islets existing on the sections of the 3 position of the pancreas, and area of Langerhans islet having the maximum area on each section were measured by using an ocular micrometer on a microscope (“ECLIPSE E600”, NIKON CORP.).

db/db mice [2] = test: Hyperglycemia improving effect in type-II diabetes model mice (Reference Example 1); format: in vivo; settings: male db/db mice, oral 1 mL of 15 μg/mL once a day
Protocol: The final DMSO concentration was adjusted to 0.2%. […] Fasting blood glucose levels and random blood glucose levels were measured over time using Antisense II (Bayer-Sankyo Co., Ltd.). The fasting blood glucose levels were measured after 15 hours of fasting.
Changes over time in random blood glucose levels and fasting blood glucose levels during the test sample administration period are shown in FIGS. 3 and 4.

db/db mice [3] = test system: db/db mice
Protocol: This test was performed in order to evaluate the pancreatic endocrine gland cell function (insulin production ability) protecting action of 3-O-β-D-glucopyranosyl-4-methyl-ergost-7-en-3-ol by using db/db mice known as a model animal of pancreatic hypofunction or pancreatic tissue dysfunction.
In this test, 6-week old male db/db mice (purchased from Clea Japan, Inc.) were used. These mice were divided into groups, each consisting of 7 animals. Each test sample was dissolved in DMSO, and the concentration was adjusted to 0.1 or 1 μg/mL with physiological saline. The final DMSO concentration was adjusted to 0.2%. The model mice were orally administered with 1 mL of the test sample once a day everyday for 42 days with a sonde. The serum insulin level was measured on the 43rd day of the continuous administration by using Lbis insulin mouse ELISA kit (Shibayagi Co., Ltd).

[4] = oral 1 μg once a day for 42 days, pancreatic sections

`CC1C(O[C@@H]2O[C@H](CO)[C@@H](O)[C@H](O)[C@H]2O)CC[C@@]2(C)C1CC=C1[C@@H]3CC[C@H]([C@H](C)CC[C@H](C)C(C)C)[C@@]3(C)CC[C@@H]12` (stereo partly drawn) [Test sample, 3-O-β-D-glucopyranosyl-4-methyl-ergost-7-en-3-ol] was tested, and the “Maximum areas of Langerhans islets relative to that observed in the negative test” value (db/db mice [1]; 1 μg, 43rd day) was 3.6 times, the “Number of Langerhans islets relative to negative sample-administered mice” value (db/db mice [1]; 1 μg, 43rd day) was 188% and the “Maximum area of Langerhans islets on 43rd day of administration” value (db/db mice [1]; [4]) was 160.0 ± 116.7 × 10^3 (μm^2). The “The numbers of Langerhans islets in sections on 43rd day of administration” value (db/db mice [1]; [4]) was 75.7 ± 24.7 piece, the “Changes over time in random blood glucose levels” value (db/db mice [2]; FIG. 3, versus negative sample) was “effect of suppressing the increases in blood glucose levels was clearly observed” and the “Changes over time in fasting blood glucose levels” value (db/db mice [2]; after 15 hours of fasting, FIG. 4, versus negative sample) was “effect of suppressing the increases in blood glucose levels was clearly observed”. The “Effect on serum insulin level (pancreatic function protecting effect)” value (db/db mice [3]; 0.1 μg/animal, 43rd day) was “any significant effect was not observed”, the “Serum insulin level relative to that observed in the negative test” value (db/db mice [3]; 1 μg/animal, 43rd day) was 216% and the “Serum insulin levels on 43rd day of administration” value (db/db mice [3]; oral 0.1 μg/animal once a day for 42 days) was 2.24 ± 0.66 ng/mL. The “Serum insulin levels on 43rd day of administration” value (db/db mice [3]; oral 1 μg/animal once a day for 42 days) was 4.29 ± 0.71 ng/mL.
